One block for each compound: values may come before it.
Legend:
[1] = biological target: T1, RpalOR1 (Rhynchophorus palmarum, UniProt A0A8A5RCH6); assay: single-sensillum recording, Drosophila at1 OSNs; assay type: cell-based; details: 500 ms, agonist
T1 sequence (A0A8A5RCH6 1-411): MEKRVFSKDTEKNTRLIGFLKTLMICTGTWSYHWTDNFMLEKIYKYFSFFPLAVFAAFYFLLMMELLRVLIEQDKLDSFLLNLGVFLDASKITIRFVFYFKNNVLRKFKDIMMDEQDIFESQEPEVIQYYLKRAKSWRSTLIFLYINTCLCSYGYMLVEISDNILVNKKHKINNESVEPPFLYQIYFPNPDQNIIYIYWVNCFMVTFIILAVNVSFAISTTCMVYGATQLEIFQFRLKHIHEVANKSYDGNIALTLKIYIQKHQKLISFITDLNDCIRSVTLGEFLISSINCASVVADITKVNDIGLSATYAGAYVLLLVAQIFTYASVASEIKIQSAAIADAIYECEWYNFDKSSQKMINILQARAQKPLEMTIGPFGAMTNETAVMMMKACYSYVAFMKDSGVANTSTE
T1 sequence (Q9VNB5 1-486 partner): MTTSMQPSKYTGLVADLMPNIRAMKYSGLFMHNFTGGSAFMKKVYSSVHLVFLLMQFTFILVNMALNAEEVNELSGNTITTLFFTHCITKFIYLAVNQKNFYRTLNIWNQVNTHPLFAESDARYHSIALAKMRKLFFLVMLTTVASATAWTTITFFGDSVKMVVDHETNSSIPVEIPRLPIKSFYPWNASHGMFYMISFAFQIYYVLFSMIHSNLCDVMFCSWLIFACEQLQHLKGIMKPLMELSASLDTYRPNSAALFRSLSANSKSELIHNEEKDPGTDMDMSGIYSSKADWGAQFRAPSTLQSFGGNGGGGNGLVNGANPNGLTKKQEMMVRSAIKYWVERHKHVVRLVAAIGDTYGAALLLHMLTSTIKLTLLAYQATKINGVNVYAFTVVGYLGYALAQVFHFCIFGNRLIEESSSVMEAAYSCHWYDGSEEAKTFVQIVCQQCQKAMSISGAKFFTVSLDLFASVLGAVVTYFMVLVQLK

[2] = biological target: T1, RpalOR1; assay: single-sensillum recording, Drosophila at1 OSNs; assay type: cell-based; details: 1 µg in hexane on stimulus cartridge, 500 ms; agonist
[3] = biological target: T2, RferOR1 (Rhynchophorus ferrugineus, UniProt A0A4P8W8S8); assay: single-sensillum recording, Drosophila at1 OSNs; assay type: cell-based; details: […] µg in paraffin oil on stimulus cartridge, […] ms; agonist
T2 sequence (A0A4P8W8S8 1-411): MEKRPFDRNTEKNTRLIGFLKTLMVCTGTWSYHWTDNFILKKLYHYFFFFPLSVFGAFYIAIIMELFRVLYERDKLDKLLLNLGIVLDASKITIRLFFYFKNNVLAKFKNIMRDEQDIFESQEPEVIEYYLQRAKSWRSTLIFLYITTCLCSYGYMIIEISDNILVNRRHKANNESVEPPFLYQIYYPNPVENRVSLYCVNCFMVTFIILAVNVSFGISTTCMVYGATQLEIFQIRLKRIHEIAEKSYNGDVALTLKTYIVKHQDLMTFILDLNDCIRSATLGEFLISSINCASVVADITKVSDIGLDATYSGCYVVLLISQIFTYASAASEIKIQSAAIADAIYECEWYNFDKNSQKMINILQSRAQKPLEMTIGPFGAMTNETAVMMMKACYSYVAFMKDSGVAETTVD
T2 sequence (Q9VNB5 1-486 partner): T1 sequence (Q9VNB5 1-486 partner)

[4] = biological target: T1, RpalOR1; details: 100 µg in paraffin oil on stimulus cartridge, 500 ms; agonist
[5] = 1 µg in hexane on stimulus cartridge
[6] = 100 µg in paraffin oil on stimulus cartridge

Structure (SMILES): CCCC(=O)C(C)CCC (stereo not drawn) [5-methyloctan-4-one]
single-sensillum recording, Drosophila at1 OSNs [1, 5]: We also found a response to 5-methyloctan-4-one

Structure (SMILES): C/C=C/C(O)CCCC (stereo not drawn) [(E)‑oct-2-en-4-ol]
single-sensillum recording, Drosophila at1 OSNs [1, 5]: The two last agonists were (E)‑oct-2-en-4-ol and nonan-5-one

average response at 1 μg [2]: 27 action potentials per second
Structure (SMILES): C/C=C/C(O)C(C)CC (stereo not drawn) [(E)−5-methylhept-2-en-4-ol]

Structure (SMILES): CCCCOC(=O)CCC [butyl butyrate]
single-sensillum recording, Drosophila at1 OSNs [1, 6]: significantly activated by the same palm tree esters: propyl butyrate, butyl butyrate
single-sensillum recording, Drosophila at1 OSNs [3]: significantly activated by the same palm tree esters: propyl butyrate, butyl butyrate

Structure (SMILES): CCCCCC(=O)OCC [ethyl hexanoate]
single-sensillum recording, Drosophila at1 OSNs [1, 6]: propyl butyrate, butyl butyrate, ethyl valerate and ethyl hexanoate
single-sensillum recording, Drosophila at1 OSNs [3]: propyl butyrate, butyl butyrate, ethyl valerate and ethyl hexanoate

Structure (SMILES): CCCCC(=O)OCC [ethyl valerate]
single-sensillum recording, Drosophila at1 OSNs [1, 6]: propyl butyrate, butyl butyrate, ethyl valerate and ethyl hexanoate

Structure (SMILES): CCCCC(O)C(C)CCC (stereo not drawn) [ferrugineol, 4-methylnonan-5-ol]
average response at 1 μg [2]: 112 action potentials per second

Structure (SMILES): CCCCC(=O)C(C)CCC (stereo not drawn) [ferrugineone, 4-methylnonan-5-one]
average response at 1 μg [2]: 103 action potentials per second

Structure (SMILES): CCCCC(O)CCCC [nonan-5-ol]
single-sensillum recording, Drosophila at1 OSNs [1, 5]: RpalOR1 was activated by phoenicol as well as nonan-5-ol

Structure (SMILES): CCCCC(=O)CCCC [nonan-5-one]
single-sensillum recording, Drosophila at1 OSNs [1, 5]: The two last agonists were (E)‑oct-2-en-4-ol and nonan-5-one

Structure (SMILES): CCCCC(O)C(C)CC (stereo not drawn) [phoenicol, 3-methyloctan-4-ol]
single-sensillum recording, Drosophila at1 OSNs [1, 5]: RpalOR1 was activated by phoenicol as well as nonan-5-ol

Structure (SMILES): CCCOC(=O)CCC [propyl butyrate]
average response at 100 μg [4]: 63 action potentials per second
single-sensillum recording, Drosophila at1 OSNs [3]: both RpalOR1 and RferOR1 were significantly activated by the same palm tree esters: propyl butyrate
